Experiments:
GL261 cells [1] = assay: serum-stimulated GL261 invasion (transwell, BME); assay type: cell-based, murine; details: 10 μM; 10% FBS in bottom well, 48 h
Experimental: FIG. 1A-1C. Semapimod inhibits microglia-stimulated glioblastoma invasion in vitro. (A) Semapimod inhibits microglia-stimulated glioblastoma cell invasion. GL261 cells were embedded in basement membrane extract (BME) with or without microglia in the presence of the indicated concentrations of semapimod, layered in the transwell and incubated for 48 h. The number of invading GL261 cells was determined. Data shown represent the average+/−SEM of 3 independent experiments, performed in duplicate. […] GL261 cells embedded in BME in the presence of the indicated concentration of semapimod, were layered in the transwell and incubated for 48 h. Serum (10% FBS) was added to the bottom well. The number of invading GL261 cells was determined. Data shown represent the average+/−SEM of 3 independent experiments. (C) Semapimod inhibits glioblastoma cell-stimulated microglia invasion. Glioblastoma cells were plated in the bottom well and microglia were embedded in BME in the presence or absence of 200 nM semapimod, layered in the transwell and incubated for 48 h. […]
Invasion Assays: Glioblastoma and microglial cells were labelled with cell tracker green CMFDA and with cell tracker red CMTPX, respectively, and then embedded in 50 μL of 10 mg/mL basement membrane extract (BME) (Trevigen). […] All invaded cells were counted.

GL261 cells [2] = assay: colony formation assay of GL261 with or without microglia and irradiation; assay type: cell-based, murine; details: 200 nM; for effect on microglia-stimulated GL261 survival (colony formation): co-culture with microglia
Experimental: Colony Formation Assay: G1261 cells and microglia were labeled as described for the invasion assay and were co-cultured in serum overnight and then changed to serum free medium for 48 h in the absence of serum at a 1:1 ratio at a density of 5×10^5 per well of a 6-well plate in the presence or absence of 200 nM semapimod. Subsequently, cells were subjected to 3 Gy of X-ray irradiation using a Radionics 160 kV irradiator. Two days after irradiation, cells were trypsinized, counted using a fluorescence microscope and 500 GL261 cells were plated in 6 cm dishes containing 10% FBS MSFM medium. Colony formation was allowed to proceed for 12 days, with medium changes every other day. Subsequently, the cells were fixed in 3.7% formaldehyde in PBS and stained with 0.2% (w/v) sulpharhodamine B (SRB) dye in 1% acetic acid for 20 min. The dishes were washed with 1% glacial acetic acid and allowed to dry. Plates were scanned and processed using Photoshop 5 (Adobe). Images were changed to grayscale and background threshold intensity was set. Colonies were counted automatically by Image J (rsbweb.nih.gov/ij/) and the numbers graphed.
Semapimod inhibits microglia-stimulated glioblastoma cell survival: A critical problem of malignant glioblastoma is its strong resistance to ionizing radiation (IR) and other therapeutic modalities (21). The role of microglia in glioblastoma cell survival has not been studied thus far. It was therefore examined whether microglia can enhance the survival of GL216 cells after IR and whether semapimod interferes with this function. GL261 cells were plated either in the presence or absence of microglia with or without semapimod (200 nM) for 2 days, followed by radiation treatment (3 Gy). Two days later, glioblastoma cell viability was assayed using a standard colony formation assay. […] In the presence of radiation, the stimulatory effect of microglia on glioblastoma cell survival is more marked (50%) and this effect is also abolished by semapimod (FIG. 2B).

SMILES: C/C(=N\NC(=N)N)c1cc(NC(=O)CCCCCCCCC(=O)Nc2cc(/C(C)=N/NC(=N)N)cc(/C(C)=N/NC(=N)N)c2)cc(/C(C)=N/NC(=N)N)c1 [semapimod]
- effect on serum-stimulated GL261 invasion (GL261 cells [1]): does not affect
- effect on microglia-stimulated GL261 survival (colony formation) (GL261 cells [2]; 3 Gy radiation): abolished
- effect on microglia-stimulated GL261 survival (colony formation) (GL261 cells [2]; absence of radiation): abolishes
- effect on survival potential of glioblastoma cell monocultures (GL261 cells [2]; no microglia): does not affect

Reference: patent publication US9440914B2, “Method for treating glioblastomas and other tumors” (THE FEINSTEIN INSTITUTE FOR MEDICAL RESEARCH, priority 2013, dated 2016)
